ChEMBL document CHEMBL1124247, “Synthesis and biological evaluation of 8-deazahomofolic acid and its tetrahydro derivative” (J Med Chem, 1988)

What was measured:
[1] = target: Dihydrofolate reductase (Lactobacillus casei, UniProt P00381); test: Inhibitory activity against dihydrofolate reductase of Lactobacillus casei; parameters: species or system Lacticaseibacillus casei
[2] = test system: Lacticaseibacillus casei; test: Tested for growth inhibition of Lactobacillus casei (MTX resistant); type: functional, organism-based
[3] = test system: Lacticaseibacillus casei; test: Tested for growth inhibition of Lactobacillus casei (ATCC […]); type: functional, organism-based
[4] = test system: L1210; test: Tested for growth inhibition of L1210 leukemia cells; type: functional, cell-based; details: Mus musculus
[5] = test system: Enterococcus faecium; test: Tested for growth inhibition of Streptococcus faecium (ATCC 8043); type: functional, organism-based
[6] = test system: Enterococcus faecium; test: Tested for growth inhibition of Streptococcus faecium (MTX resistant); type: functional, organism-based
[7] = target: T1, Thymidylate synthase (Lactobacillus casei, UniProt P00469); test: Inhibitory activity against thymidylate synthase of Lactobacillus casei; parameters: species or system Lacticaseibacillus casei
T1 sequence (P00469 whole entry): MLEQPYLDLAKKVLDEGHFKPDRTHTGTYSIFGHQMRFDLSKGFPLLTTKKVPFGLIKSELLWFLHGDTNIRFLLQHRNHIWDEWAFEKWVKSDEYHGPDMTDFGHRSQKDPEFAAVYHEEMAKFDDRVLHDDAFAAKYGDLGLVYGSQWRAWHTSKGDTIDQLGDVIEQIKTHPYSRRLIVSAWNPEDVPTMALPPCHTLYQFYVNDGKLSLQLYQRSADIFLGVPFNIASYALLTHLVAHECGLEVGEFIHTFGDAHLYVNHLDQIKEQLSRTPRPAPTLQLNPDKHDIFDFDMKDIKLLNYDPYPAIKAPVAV

[8] = target: Thymidylate synthase (Escherichia coli, UniProt C3SWJ7); test: Inhibitory activity against thymidylate synthase of Escherichia coli
Sequence of Thymidylate synthase (Escherichia coli, UniProt C3SWJ7) (C3SWJ7 whole entry): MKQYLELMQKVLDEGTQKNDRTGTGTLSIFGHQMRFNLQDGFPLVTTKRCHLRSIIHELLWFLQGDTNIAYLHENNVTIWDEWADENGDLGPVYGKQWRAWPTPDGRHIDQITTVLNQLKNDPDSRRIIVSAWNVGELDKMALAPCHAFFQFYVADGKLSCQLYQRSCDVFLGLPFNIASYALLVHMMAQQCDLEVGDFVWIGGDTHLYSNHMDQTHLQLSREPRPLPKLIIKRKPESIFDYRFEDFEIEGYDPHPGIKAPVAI

Sequence of Dihydrofolate reductase (P00381 whole entry): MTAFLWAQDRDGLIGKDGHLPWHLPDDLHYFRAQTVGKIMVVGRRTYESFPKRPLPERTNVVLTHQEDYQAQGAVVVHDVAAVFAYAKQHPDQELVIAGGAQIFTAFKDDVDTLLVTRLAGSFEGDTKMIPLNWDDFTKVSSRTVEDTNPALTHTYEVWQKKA

| IC50 [8] [nM] | Structure (SMILES) | IC50 [1] [nM] | IC50 [2] [nM] | IC50 [3] [nM] | IC50 [4] [nM] | IC50 [5] [nM] | IC50 [6] [nM] | IC50 [7] [nM] |
| --- | --- | --- | --- | --- | --- | --- | --- | --- |
| – | Nc1nc2c(c(=O)[nH]1)NC(CCNc1ccc(C(=O)NC(CCC(=O)O)C(=O)O)cc1)CC2 (stereo unspecified) | 230000 | > 100000 | 35 | 35700 | 15 | > 100000 | 340000 |
| – | Nc1nc(O)c2nc(CCNc3ccc(C(=O)NC(CCC(=O)O)C(=O)O)cc3)cnc2n1 (stereo unspecified) | – | – | 220 | – | 2200 | – | – |
| – | Nc1nc(O)c2nc(CNc3ccc(C(=O)NC(CCC(=O)O)C(=O)O)cc3)ccc2n1 (stereo unspecified) | 12000 | 2040 | 1.4 | 1330 | 0.3 | 294 | 14000 |
| – | Nc1nc(O)c2c(n1)CCC(CNc1ccc(C(=O)NC(CCC(=O)O)C(=O)O)cc1)N2 (stereo unspecified) | 55000 | > 4000 | 2.7 | – | 1.6 | 1040 | 75000 |
| – | Nc1nc(O)c2nc(CCNc3ccc(C(=O)NC(CCC(=O)O)C(=O)O)cc3)ccc2n1 (stereo unspecified) | 220000 | 330 | 19 | 87000 | 21 | 1100 | 160000 |
| 2000 | Nc1nc(O)c2c(n1)NCC(CCNc1ccc(C(=O)NC(CCC(=O)O)C(=O)O)cc1)N2 (stereo unspecified) | – | – | 13 | – | 1.5 | – | – |
| – | CN(Cc1cnc2nc(N)nc(N)c2n1)c1ccc(C(=O)N[C@@H](CCC(=O)O)C(=O)O)cc1 [METHOTREXATE] | – | – | 0.05 | 3.9 | 0.8 | 8000 | – |
